Assays:
Test in all cases: relative viability (nuclei count vs DMSO), 5 days (fraction); higher = more cells survive
Sulindac + Olaparib = compound: CC1=C(CC(=O)O)c2cc(F)ccc2/C1=C\c1ccc([S+](C)[O-])cc1 [Sulindac] + O=C(c1cc(Cc2n[nH]c(=O)c3ccccc23)ccc1F)N1CCN(C(=O)C2CC2)CC1 [Olaparib] (partner 8 µM)
How it was run: (§1)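 Lung cancer cell lines were seeded in 1536-well plates and dosed by pin tool the next day, with either a single drug or a fixed anchor-drug dose combined with five library-drug doses (not always all listed) spaced in √10 steps. Five days later, one step fixed the cells and stained their nuclei (final 0.05% Triton X-100, 1% formaldehyde, 1 ug/ml Hoechst), and nuclei were counted on 4× images. Relative viability is the nuclei count in treated wells divided by the count in vehicle wells, and each value is the median of duplicate plates.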

[1] = compound: CN[C@@H]1C[C@H]2O[C@@](C)([C@@H]1OC)n1c3ccccc3c3c4c(c5c6ccccc6n2c5c31)C(=O)NC4 [Staurosporine] + CC(=O)c1c(C)c2cnc(Nc3ccc(N4CCNCC4)cn3)nc2n(C2CCCC2)c1=O [Palbociclib] (partner 0.5 µM)
How it was run: as §1

[2] = compound: CN[C@@H]1C[C@H]2O[C@@](C)([C@@H]1OC)n1c3ccccc3c3c4c(c5c6ccccc6n2c5c31)C(=O)NC4 [Staurosporine] + COc1cc2c(Oc3ccc(NC(=O)C4(C(=O)Nc5ccc(F)cc5)CC4)cc3F)ccnc2cc1OCCCN1CCOCC1 [Foretinib] (partner 0.25 µM)
How it was run: as §1

[3] = compound: O=c1[nH]cc(F)c(=O)[nH]1 [5-Fluorouracil] + Nc1ncn([C@H]2C[C@H](O)[C@@H](CO)O2)c(=O)n1 [Decitabine] (partner 2 µM)
How it was run: as §1

| Cell Line | relative viability (Sulindac + Olaparib; first compound 0.08 µM) | relative viability (Sulindac + Olaparib; first compound 0.253 µM) | relative viability (Sulindac + Olaparib; first compound 0.8 µM) | relative viability (Sulindac + Olaparib; first compound 2.53 µM) | relative viability (Sulindac + Olaparib; first compound 8 µM) | relative viability ([1]; first compound 0.005 µM) | relative viability ([1]; first compound 0.01581 µM) | relative viability ([1]; first compound 0.05 µM) | relative viability ([1]; first compound 0.1581 µM) | relative viability ([1]; first compound 0.5 µM) | relative viability ([2]; first compound 0.005 µM) | relative viability ([2]; first compound 0.01581 µM) | relative viability ([2]; first compound 0.05 µM) | relative viability ([2]; first compound 0.1581 µM) | relative viability ([2]; first compound 0.5 µM) | relative viability ([3]; first compound 0.02 µM) | relative viability ([3]; first compound 0.2 µM) | relative viability ([3]; first compound 0.6325 µM) | relative viability ([3]; first compound 2 µM) |
| --- | --- | --- | --- | --- | --- | --- | --- | --- | --- | --- | --- | --- | --- | --- | --- | --- | --- | --- | --- |
| NCI-H2085 | 0.742 | 0.79 | 0.711 | 0.792 | 0.837 | 0.442 | 0.359 | 0.355 | 0.301 | 0.303 | 0.516 | 0.437 | 0.324 | 0.195 | 0.26 | 0.516 | 0.567 | 0.657 | 0.526 |
| NCI-H2087 | 0.606 | 0.722 | 0.54 | 0.468 | 0.571 | 0.208 | 0.2 | 0.0957 | 0.0793 | 0.0947 | 0.863 | 0.561 | 0.252 | 0.112 | 0.0962 | 0.244 | 0.295 | 0.271 | 0.224 |
| NCI-H2126 | 1.12 | 0.923 | 0.87 | 0.951 | 1 | 0.353 | 0.339 | 0.348 | 0.33 | 0.327 | 1.35 | 0.69 | 0.634 | 0.613 | 0.297 | 0.518 | 0.306 | 0.28 | 0.258 |
| NCI-H2170 | 0.658 | 0.576 | 0.493 | 0.591 | 0.626 | 0.43 |  | 0.314 | 0.218 | 0.176 | 1.04 |  | 0.866 | 0.382 | 0.307 | 0.501 | 0.451 | 0.439 | 0.328 |
| NCI-H2342 | 0.353 | 0.368 | 0.414 | 0.415 | 0.451 | 0.507 | 0.51 | 0.488 | 0.433 | 0.344 | 1.01 | 0.816 | 0.486 | 0.516 | 0.4 | 0.726 | 0.682 | 0.698 | 0.739 |
| NCI-H2347 | 0.546 | 0.599 | 0.562 | 0.574 | 0.616 | 0.433 | 0.398 | 0.331 | 0.375 | 0.324 | 1.04 | 0.588 | 0.374 | 0.289 | 0.422 | 0.587 | 0.618 | 0.441 | 0.407 |
| NCI-H2405 | 0.93 | 0.851 | 0.86 | 0.831 | 1.08 | 0.196 | 0.172 | 0.122 |  | 0.0886 | 0.675 | 0.302 |  | 0.105 | 0.0788 | 0.734 | 0.741 | 0.738 | 0.661 |
| NCI-H3122 | 0.739 | 0.648 | 0.579 | 0.655 | 0.604 | 0.248 |  | 0.225 |  | 0.171 | 1.03 |  | 0.76 | 0.695 | 0.371 | 0.432 | 0.447 | 0.304 | 0.214 |
| PC-3 [JPC-3] | 1.36 | 1.09 | 0.941 | 1.13 | 1.25 | 0.563 | 0.513 | 0.398 | 0.398 | 0.343 | 1.07 | 0.483 | 0.525 | 0.359 | 0.4 | 0.851 | 0.873 | 0.779 | 0.75 |

From the supplement of paper PMC10307832
